Assay results published in patent publication US20160243056A1, “Sustained Release Formulations Containing Methylglyoxal and Their Therapeutic Applications” (priority 2013, published 2016).
Where two headings read alike, the source gives them in different places.

Legend:
[1] = tested on: Ehrlich ascites carcinoma (EAC) cells; test: Tumor growth inhibition of EAC cells inoculated intraperitoneally in mice (Trypan Blue cell count); type: in vivo
Experimental: The Effect of Nano-Methylglyoxal on the Excessive Proliferation of Cancerous Cells in Mice was Investigated as Follows: • a) Mice bearing Ehrlich ascites carcinoma cells (No. of EAC cell inoculated each mouse=1×10^6) were treated intravenously with nano-methylglyoxal in normal saline to observe the effect of cell proliferation. Treatment started after 24 hrs, of inoculation in mice intravenously with three different doses of nanoMG in solution. In first group every day each mouse received 25 μl nanoMG solution (containing 2.5 μg methylglyoxal), in second group each mouse received 50 μl nanoMG solution (containing 5 μg methylglyoxal) and in third group each mouse received 100 μl nanoMG solution (containing 10 μg methylglyoxal). Mice in the negative control group were similarly treated intravenously with normal saline and the positive control groups were treated intravenously with bare methylglyoxal (20 mg/kg body weight/day) in normal saline. Each group contains six mice. Each set of experiment was repeated four times. Melatonin (0.25 mg/kg body weight/day), creatine (150 mg/kg body weight/day) and Ascorbic acid (50 mg/kg body weight/day) were fed orally to each mouse. Treatment was continued for consecutive 8 days (Table-5, Table-6). […]

sarcoma-180 cells [2] = test: Measurement of tumor volume, Sarcoma-180 tumour in left hind leg of mice; type: in vivo, Swiss albino female mice; conditions: bare methylglyoxal 20 mg/kg body weight/day iv, five days a week
Experimental: In the present invention, effect of modified nanomethylGlyoxal, against tumor in mice, have been studied. Briefly, Swiss albino female mice aged 4-6 weeks weighing 18-20 g were taken. Each group contained four mice. Tumors were developed in the left hind leg of a mouse by intra-muscular injection of sarcoma-180 cells (approximately 2×10^6 cells in each mouse). Each set of experiment was repeated 4 times. Drug was administered to the mice intravenously, five days a week. Polymer conjugated methylglyoxal (Nano-MG) was administered intravenously at an amount of 0.4 mg/kg body weight/day. One group received bare methylglyoxal (20 mg/kg body weight/day). Drug was administered after 72 hours of inoculation of Sarcoma-180 tumour in the treated group. Treatment was continued for four weeks.

peritoneal macrophages [3] = test: Peritoneal macrophage count in treated mice; type: in vivo; conditions: for Peritoneal macrophage Count (×10^6): bare MG 20 mg/kg body weight/day iv
Experimental: Values in the bracket denote dose at mg/kg body wt/day • Ehrlich ascites carcinoma (EAC) cells developed in the intraperitoneal cavity of mouse were collected in different time intervals. After washing with normal saline the cells were re-suspended in phosphate buffered saline. […] Number of Sarcoma-180 cells inoculated to each mouse was 1×10^6. The tumor bearing mice were treated with modified nano-methylglyoxal (present formulation) in normal saline through intravenous route to study the tumor growth inhibition by nano-methylglyoxal. Treatment started after 7 days of inoculation in mice intravenously with 50 μl nanoMG in solution (containing 5 μg methylglyoxal). Mice in the negative control group were similarly treated intravenously with normal saline and the positive control groups were treated intravenously with bare methylglyoxal (20 mg/kg body weight/day) in normal saline. Each group contained six mice. Each set of experiment was repeated four times. melatonin (0.25 mg/kg body weight/day), creatine (150 mg/kg body weight/day) and Ascorbic acid (50 mg/kg body weight/day) were fed orally to each mouse everyday. Treatment was given with single daily dose for consecutive 12 days. […] Treatment started after 7 days of inoculation in mice intravenously with 50 μl nanoMG in solution (containing 5 μg methylglyoxal). Treatment was continued for 20 doses (six doses per week) in 23 days. Melatonin (0.25 mg/kg body weight/day), creatine (150 mg/kg body weight/day) and Ascorbic acid (50 mg/kg body weight/day) were fed orally to each mouse. • d) Solid tumor bearing mice treated with nanoMG as described previously were sacrificed for the isolation of macrophages. Briefly, RPMI-1640 was injected in the peritoneal cavity of mouse and peritoneal macrophages were isolated and centrifuged and resuspended in RPMI-1640+10% FBS and used further for immunomodulatory studies. […] In the present invention, effect of modified nanomethylGlyoxal, against tumor in mice, have been studied. Briefly, Swiss albino female mice aged 4-6 weeks weighing 18-20 g were taken. Each group contained four mice. […]

peritoneal macrophages [4] = test: Superoxide anion generation (production of reduced NBT) by peritoneal macrophages; type: in vivo, mice; conditions: bare MG 20 mg/kg body weight/day iv
Experimental: Values in the bracket denote dose at mg/kg body wt/day • Ehrlich ascites carcinoma (EAC) cells developed in the intraperitoneal cavity of mouse were collected in different time intervals. After washing with normal saline the cells were re-suspended in phosphate buffered saline. […] Number of Sarcoma-180 cells inoculated to each mouse was 1×10^6. The tumor bearing mice were treated with modified nano-methylglyoxal (present formulation) in normal saline through intravenous route to study the tumor growth inhibition by nano-methylglyoxal. Treatment started after 7 days of inoculation in mice intravenously with 50 μl nanoMG in solution (containing 5 μg methylglyoxal). Mice in the negative control group were similarly treated intravenously with normal saline and the positive control groups were treated intravenously with bare methylglyoxal (20 mg/kg body weight/day) in normal saline. Each group contained six mice. Each set of experiment was repeated four times. melatonin (0.25 mg/kg body weight/day), creatine (150 mg/kg body weight/day) and Ascorbic acid (50 mg/kg body weight/day) were fed orally to each mouse everyday. Treatment was given with single daily dose for consecutive 12 days. […] Treatment started after 7 days of inoculation in mice intravenously with 50 μl nanoMG in solution (containing 5 μg methylglyoxal). Treatment was continued for 20 doses (six doses per week) in 23 days. […]

Sarcoma-180 cells [5] = conditions: sarcoma-180 cells injected concomitantly with Methylglyoxal; cited from earlier work
[6] = tested on: Glyceraldehyde-3-Phospahte Dehydrogenase; conditions: cited from earlier work
Mitochondrial Complex I = conditions: cited from earlier work
Sarcoma = test: Sarcoma-bearing mice: Creatine content, CK activity and tumor size; type: in vivo
Text: We also investigated the status of Creatine and CK in a few post-operative tissue samples from human patients, and similar to the results of animal tissues, the Creatine content and CK activity were much reduced in both human Fibrosarcoma and Gastro-Intestinal Tract Malignancy, compared to healthy control tissues.

L1236 = conditions: cited from earlier work
[7] = tested on: Ehrlich Ascites Carcinoma (EAC) cells; test: Oral Melatonin on EAC cells implanted intra-peritoneally in female mice; type: in vivo; conditions: Melatonin 50 mg/kg body wt.
Text: With these rationales, Melatonin has been applied to treat cancer in both animal and human in our laboratory and has shown significant improvement over the formulations without Melatonin. […] The effects of oral supplementation of Melatonin on growth of Ehrlich Ascites Carcinoma (EAC) cells implanted intra-peritoneally in female mice were studied in our lab. […] It has strong antioxidant properties and anticancer and onco-static action. Melatonin has potential anticancer activity whether given alone or in association with cancer chemotherapy. […] In this study, 30 patients with untreatable metastatic solid tumors were treated with daily 30 mg oral Melatonin in conjunction with low doses of antitumor cytokines. […] In addition Melatonin may have other biological effects, which could be useful in palliative therapy of Cancer.

Structure (SMILES): CC(=O)C=O [Bare-methylglyoxal, Methylglyoxal]
- No. of cells on day 9 ([1]; Bare-methylglyoxal 20 mg/kg body weight/day iv, 8 consecutive doses from day 1, in million cells): 29 ± 2.9
- Sarcoma-180 + Bare-MG Volume of tumour (c.c.) (sarcoma-180 cells [2]; day 12): 1 ± 0.1 c.c.
- Sarcoma-180 + Bare-MG Volume of tumour (c.c.) (sarcoma-180 cells [2]; day 16): 1.4 ± 0.05 c.c.
- Sarcoma-180 + Bare-MG Volume of tumour (c.c.) (sarcoma-180 cells [2]; day 21): 2 ± 0.15 c.c.
- Sarcoma-180 + Bare-MG Volume of tumour (c.c.) (sarcoma-180 cells [2]; day 26): 2 ± 0.17 c.c.
- Sarcoma-180 + Bare-MG Volume of tumour (c.c.) (sarcoma-180 cells [2]; day 31): 2.73 ± 0.27 c.c.
- Macrophage count increase with respect to untreated tumour bearing batch (peritoneal macrophages [3]; bare-MG treated mice (20 mg/kg/day iv)): two fold in bare-MG treated mice
- Peritoneal macrophage Count (×10^6) (peritoneal macrophages [3]; normal mice): 10.88 ± 1.15 ×10^6
- Peritoneal macrophage Count (×10^6) (peritoneal macrophages [3]; sarcoma tumour bearing mice): 12.91 ± 1.46 ×10^6
- Superoxide anion generation Production of reduced NBT (peritoneal macrophages [4]; normal mice): 243 ± 2.82 µmol
- Superoxide anion generation Production of reduced NBT (peritoneal macrophages [4]; sarcoma tumour bearing mice): 317.5 ± 10.60 µmol
- Tumor development (Sarcoma-180 cells [5]): No tumor developed
- Enzyme inhibition ([6]; enzyme of malignant cells): inhibits
- Enzyme inhibition ([6]; enzyme of normal cells): no inhibitory effect
- Enzyme inhibition (Mitochondrial Complex I; enzyme of malignant cells): inhibits
- Enzyme inhibition (Mitochondrial Complex I; enzyme of normal cells): no inhibitory effect

Structure (SMILES): CN(CC(=O)O)C(=N)N [Creatine]
- Effect of Creatine administration on the effect of Methylglyoxal and Ascorbic Acid (Sarcoma): significantly augmented

Structure (SMILES): NC1=NCCN1CC(=O)O [Cyclocreatine, cyclocreatine]
- Inhibition of proliferation (L1236): nearly entirely

Structure (SMILES): COc1ccc2[nH]cc(CCNC(C)=O)c2c1 [Melatonin]
- Effect of introducing melatonin on tumor growth inhibition of EAC cells ([1]; melatonin in combination with ascorbic acid and creatine, with modified NanoMG): 2. Efficacy is enhanced further when melatonin is introduced in combination with ascorbic acid and creatine for tumor growth inhibition of EAC cells in mice
- Survival of the treated mice [7]: increased the survival
- Viability and volume of Ehrlich Ascites Carcinoma cells [7]: reduced the viability and volume
